# From US9782345B2, “Ocular composition and method” (Jade Therapeutics, Inc, priority 2013, dated 2017)
# Assay: Tobramycin release study from CMHA-S/PEGDA films (OPA fluorescence assay)
# Format: physicochemical
# Procedure: Tobramycin sulfate (2 mg/film) and tobramycin free base (2 mg/film) were used for this study. As tobramycin absorbs UV weakly, OPA assay and measuring fluorescence were used to calculate cumulative release of tobramycin. Amount of release tobramycin was calculated from standard curve. The accumulated release amount of tobramycin was more than 1 mg (thus more than 50% release) over 7 days.
# Drug-loaded films were placed in PBS for the antibiotic release study. The fluid was removed and assayed daily. For tobramycin, detection was performed using an O-phthaldialdehyde (OPA) reagent. OPA, in the presence of reduced sulfhydryl groups, reacts with the primary amine group in tobramycin to form fluorescent moieties. The fluorescence was measured at an excitation wavelength of 360 nm, and an emission wavelength of 460 nm. The amount of released drug was calculated using a standard solution of tobramycin. For moxifloxacin, UV absorption at 293 nm was used to measure the amount of released drug. The amount of released drug was calculated using a standard solution of moxifloxacin. This removed fluid was also used to assess the bactericidal capability of released antibiotic by the disk diffusion method on agar plates seeded with S. aureus and P. aeruginosa measuring zone of inhibition (ZOI). Similar ZOI bacterial work was also performed using the actual films by an outside lab, Analytical Resource Lab (ARL, Salt Lake City, Utah).
# Each film contained 40 μg of tobramycin free base. CMHA-S films were made with 3 different crosslinking ratios: 1.5, 2.0, or 2.5. As tobramycin absorbs UV weakly, OPA assay was used to measure fluorescence using low concentrations of tobramycin. The amount of released tobramycin was calculated from a standard curve. The accumulated released amount of tobramycin was more than 20 μg (thus more than 50% release) over 7 days. The release increased continuously up to day 3 and remained unchanged for the different thiol to acrylate ratios.
structure (smiles),measurement,setting,value
NC[C@H]1O[C@H](O[C@H]2[C@H](O)[C@@H](O[C@H]3O[C@H](CO)[C@@H](O)[C@H](N)[C@H]3O)[C@H](N)C[C@@H]2N)[C@H](N)C[C@@H]1O [tobramycin],release of tobramycin (share of load),"40 μg tobramycin free base per film, over 7 days (FIG. 5)",more than 50%
same,accumulated released amount of tobramycin,"40 μg tobramycin free base per film, thiol to acrylate 1.5, 2.0, 2.5, over 7 days (FIG. 5)",more than 20 μg
same,accumulated release amount of tobramycin,"2 mg/film tobramycin sulfate or free base, thiol to acrylate 1.5 and 2.0, over 7 days (FIG. 3)",more than 1 mg
same,release of tobramycin (share of load),"2 mg/film, over 7 days (FIG. 3)",more than 50%
